# Measured values published in patent publication US12544381B2, “Topical formulation for JAK inhibitor” (Incyte Corporation, priority 2010, dated 2026).
# Counter-ions that a name gives are not always drawn.
# Assay: Solubility studies (Example 4)
# Type: physicochemical
# Method: In order to determine the solubility of (R)-3-(4-(7H-pyrrolo[2,3-d]pyrimidin-4-yl)-1H-pyrazol-1-yl)-3-cyclopentylpropanenitrile (free base) or its phosphate salt, approximately 5 mL of a potential solvent was added to approximately 50 mg of the API or its salt at room temperature. The mixtures were suspended and rotated on a wheel. If the mixtures became clear solutions, more solid material was added. The suspensions were then suspended over 24 hours. The samples were filtered through 0.2 micron filters. The liquid portions were collected and diluted with 50/50 water methanol/water. The concentrations of the diluted samples were analyzed by HPLC. When the free base or salt was fairly insoluble, the results are approximate only.
smiles,measurement,setting,value
"N#CC[C@H](C1CCCC1)n1cc(-c2ncnc3[nH]ccc23)cn1 [Phosphate Salt, (R)-3-(4-(7H-pyrrolo[2,3-d]pyrimidin-4-yl)-1H-pyrazol-1-yl)-3-cyclopentylpropanenitrile Phosphoric Acid Salt]",Solubility,Benzyl alcohol,3000 µg/mL
same,Solubility,Ethanol,7300 µg/mL
same,Solubility,Glycerin,11000 µg/mL
same,Solubility,Isopropanol,600 µg/mL
same,Solubility,Isosorbide dimethyl ether,400 µg/mL
same,Solubility,Olelyl alcohol,100 µg/mL
same,Solubility,PEG 200,23000 µg/mL
same,Solubility,PEG 300,14000 µg/mL
same,Solubility,Propylene glycol,24000 µg/mL
same,Solubility,Transcutol,10000 µg/mL
same,Solubility,Trolamine,51000 µg/mL
same,Solubility,Water/PEG 200 (50/50),23000 µg/mL
same,Solubility,Water/glycerin/trolamine (40/40/20),18000 µg/mL
same,Solubility,Water/glyercin (50/50),21000 µg/mL
same,Solubility,"Water, room temperature",2700 µg/mL
same,Solubility,"pH 4, citric buffer, 0.1M",1500 µg/mL
same,Solubility,"pH 6, citric buffer, 0.1M",200 µg/mL
